Drawing on US10435388B2, “Selective inhibitors of clinically important mutants of the EGFR tyrosine kinase” (CS PHARMATECH LIMITED, priority 2016, dated 2019), this text covers IC50 for seven compounds.

For assay [1], the system named is PC9 cells (EGFR d746-750 single mutant). Put plainly: PC-9 growth inhibition assay (cell proliferation), Method A. It counts as cell-based, human. To be noted: Homo sapiens, PC-9; cellular proliferation, PC9 cells, 72 h, CellTiter-Glo (Table 1); read-out: PC9 IC50 (nM) SM. The protocol: (§1) Cell Proliferation Assays—Method A
(§2) The final concentration was 4,000 cells/well. Add medium only as low control.
(§3) Day-2: Test compounds were dissolved in DMSO at 0.2 mM (200×).
(§4) Day-5: After 72 hours incubation, remove the plates from incubator and equilibrate at room temperature for 15 minutes. Incubate the CellTiter Glo reagents (Promega, G9243) at 37° C. before the experiment. The buffer was equilibrated to room temperature and used to dissolve the substrate. To determine the cell viability, add 30 μL of CellTiter-Glo reagent into each well to be detected. Then shake the plates at room temperature for 10 min and followed by plate read on Envision (PerkinElmer).
(§5) For estimation of IC50, the luminescence readout are transformed to % Inhibition by applying the following equation: The IC50 was then
(§6) [formula] calculated by fitting in XLFit to a four parameters logistic curve.
PC-9 Growth Inhibition Assay (Cell Proliferation)
The inhibition assay for PC-9 cells was processed in the same manner as described for the H1975 cells.
A general note: Cellular ATP, detected with luciferase, serves as a proxy for viable cell number.

For assay [2], the system named is NCI-H1975 cells (EGFR L858R/T790 double mutant). Put plainly: H1975 inhibition assay (cell proliferation), Method A. It counts as cell-based. Particulars: Homo sapiens; cellular proliferation, NCI-H1975 cells, 72 h, CellTiter-Glo (Table 1); read-out: NCI-H1975 IC50 (nM) DM. The protocol:
as §1
H1975 Inhibition Assay (Cell Proliferation)
as §2, §3, §4, §5, §6

Assay [3] concerns LoVo cells (unmutated EGFR wild type). Description: LoVo growth inhibition assay (cell proliferation), Method A. It counts as cell-based. Particulars: Homo sapiens, cellular proliferation, 72 h, CellTiter-Glo (Table 1), read-out: LoVo IC50 (nM) WT. The protocol: as §1
LoVo Growth Inhibition Assay (Cell Proliferation)
The rest of the procedure was carried out in the same manner as described for the H1975 cells.

The subject of assay [4] is p-EGFR in PC9 cells (Exon 19 deletion EGFR). Put plainly: Exon19 deletion EGFR (activating single mutant) PC-9 cellular autophosphorylation assay. In kind it is cell-based, human. Particulars: 2 h treatment, ELISA. The protocol:
Cellular EGFR Autophosphorylation Assays.
The human lung cell line PC9 (Exon 19 deletion EGFR) is obtained from the American type Culture Collection. […] Cells are grown in a humidified incubator at 37° C. with 5% CO2, Assays to measure cellular phosphorylation of endogenous p-EGFR in cell Iysates are carried out according to the protocol described in the R&D Systems DuoSet IC Human Phospho-EGF R ELISA (R&D Systems catalogue number #DYCI095). 40 μL of cells are seeded (10000 cells/well) in growth medium in Corning black, clear-bottomed 384-well plates and incubated at 37° C., with 5%0/CO2 overnight. […] Plates are incubated for a further 2 h, then following aspiration of medium, 40 μL×lysis buffer is added to each well. Greiner black high bind 384 well plates are coated with capture antibody and then blocked with 3% BSA. Following removal of block, 15 μL of lysate are transferred to the Greiner black high bind 384 well plates and incubated for 2 hours. Following aspiration and washing of the plates with PBS, 20 μL of detection antibody are added and incubated for 2 hours. […] The data obtained with each compound are exported into a suitable software package (such as Origin) to perform curve fitting analysis.
Background: An ELISA detects its analyte on a solid surface through an enzyme-linked reagent.

The next assay has as its target T1, IGF-1R (Homo sapiens, UniProt P08069).
T1 construct: purchased CARNA BIOSCIENCE 08-141
Put plainly: IGF-1R inhibition assay (Caliper EZ Reader). In kind it is biochemical. Particulars: enzyme assay. The protocol:
(§7) Test compound was dissolved in DMSO at 30 mM. […] 20 nL of these compounds DMSO dilutes were dispensed into a new 384-well assay plate by Echo 550. […] 15 uL of kinase assay buffer containing IGF-1R protein and substrate was transferred to assay plate and incubate at RT for 30 minutes. Kinase assay buffer supplemented with substrate peptides was employed as low control to monitor the background. 40 μM ATP was prepared in kinase assay buffer containing and 5 μL of ATP solution was added to each well to start the reaction. The assay plate was incubated at 25° C. for 180 minutes and the reaction was stopped by adding 40 μL of 0.5 M EDTA.
Phosphorylated fluorescent-tagged peptides were differentiated from non-phosphorylated peptides by separating using Caliper EZ Reader II and the detection was directly converted to conversion ratio.

Another assay addresses T2, INSR (Homo sapiens, UniProt P06213).
T2 construct: purchased CARNA BIOSCIENCE 08-142
Description: INSR inhibition assay (Caliper EZ Reader). To be noted: enzyme assay. In kind it is biochemical. The protocol: as §7, with “INSR” for “IGF-1R”, “LM” for “μM”
The result is analyzed in the same manner of […].

Assay [5] concerns p-EGFR in H1975 cells (L858R/T790M double mutant EGFR).
Another assay addresses EGFR_d746-750 (Homo sapiens, UniProt P00533, DEL746-750). Put plainly: Enzyme assay, IC50 for single mutant EGFR_d746-750 (Caliper). It counts as biochemical. To be noted: enzyme phosphorylation assay. The protocol: (§8) Using the same technique as described in the previous paragraph, various mutated forms of the epidermal growth factor receptor may be isolated from appropriate cell lines which contain them. For example, the EGFR de1746-750 mutant protein may be extracted from PC-9 cells, and the L858R/T790M double mutant EGFR protein may be isolated from H1975 cells.
Determination of IC50 Values for Single Mutant EGFR_d746-750
Dilute all compounds to 500 μM stock solutions in 100% DMSO and make a serial of 4-fold dilution for 10 doses. “Max” and “Min” control contain 100% DMSO. “Max” stands for […], “Min” stands for low control without compounds. Transfer 10 μl of compounds to 90 μl of 1× kinase base buffer to make intermediate dilution. […] Incubate at RT for 1 hr and 25 μl stop buffer to end up reaction. Collect conversion data from Caliper and conversion data from Caliper program. Fit the data in XLfit to obtain IC50 values.

Another assay deals with EGFR_T790M/L858R (Homo sapiens, UniProt P00533, L858R/T790M). Put plainly: Enzyme assay, IC50 for double-mutant EGFR (EGFR_T790M/L858R) (Caliper). It counts as biochemical. To be noted: enzyme phosphorylation assay; read-out: EGFR_L858R/T790 IC50. The protocol: as §8
Determination of IC50 Values for Double-Mutant EGFR (EGFR_T790M/L858R)
Dilute all compounds to 500 μM stock solutions in 100% DMSO and make a serial of 4-fold dilution for 10 does. “Max” and “Min” control contain 100% DMSO. “Max” stands for […], “Min” stands for low control without compounds. Transfer 10 μl of compounds to 90 μl of 1× kinase base buffer to make intermediate dilution. […] Incubate at RT for 1 hr and 25 μl stop buffer to end up reaction. Collect conversion data from Caliper and conversion data from Caliper program. Fit the data in XLfit to obtain IC50 values.

A further assay addresses T3, Wt EGFR (Homo sapiens, UniProt P00533).
T3 construct: isolated from A431 human epidermoid carcinoma cells which overexpress EGF receptor; endogenous in cells; host or cells: A431 human epidermoid carcinoma cells (receptor purified on wheat germ agglutinin sepharose)
Put plainly: Enzyme assay, IC50 for wt EGFR (Caliper). To be noted: enzyme phosphorylation assay; read-out: EGFR_WT IC50. In kind it is biochemical. The protocol:
Purification of Epidermal Growth Factor Receptor Tyrosine Kinase Human EGF receptor tyrosine kinase was isolated from A431 human epidermoid carcinoma cells which overexpress EGF receptor by the following methods. Cells were grown in roller bottles in 50% Delbuco's Modified Eagle and 50% HAM F-12 nutrient media (Gibco) containing 10% fetal calf serum. Approximately 10^9 cells were lysed in two volumes of buffer containing 20 mM 2-(4N-[2-hydroxyethyl]piperazin-1-yl)ethanesulfonic acid (hepes), pH 7.4, 5 mM ethylene glycol bis(2-aminoethyl ether) N,N,N′,N′-tetraacetic acid, 1% Triton X-1OO, 10% glycerol. 0.1 mM sodium orthovanadate, 5 mM sodium fluoride, 4 mM pyrophosphate, 4 mM benzamide, 1 mM dithiothreitol, 80 μg/mL aprotinin, 40 μg/mL leupeptin and 1 mM phenylmethylsulfonyl fluoride. After centrifugation at 25,000×g for 10 minutes, the supernatant was equilibrated for 2 h at […], with 10 mL of wheat germ agglutinin sepharose that was previously equilibrated with 50 mM Hepes, 10% glycerol, 0.1% Triton X-100 and 150 mM NaCl, pH 7.5, (equilibration buffer). Contaminating proteins were washed from the resin with 1M NaCl in equilibration buffer, and the enzyme was eluted with 0.5M N-acetyl-1-D-glucosamine in equilibration buffer, followed by 1 mM urea. The enzyme was eluted with 0.1 mg/ml EGF.
Determination of IC50 Values for Wt EGFR
Dilute all compounds to 500 μM stock solutions in 100% DMSO and make a serial of 4-fold dilution for 10 does. “Max” and “Min” control contain 100% DMSO. “Max” stands for […], “Min” stands for low control without compounds. Transfer 10 μl of compounds to 90 μl of Ix kinase base buffer to make intermediate dilution. Transfer 5 μl of intermediate dilution compounds to the 384-well assay plate, then 10 μl 2.5× enzyme buffer containing (20 nM EGFR, 5 mM DTT, 1× kinase base buffer) were added to assay plate. […] Incubate at RT for 1 hr and 25 μl stop buffer to end up reaction. Collect conversion data from Caliper and conversion data from Caliper program. Fit the data in XLfit to obtain IC50 values.

Where “and” joins values, the source holds several entries; their conditions need not be identical. Equal values may be shown once. Read-outs that look alike come from different tables or passages of the source.

T3 sequence (P00533 25-1210): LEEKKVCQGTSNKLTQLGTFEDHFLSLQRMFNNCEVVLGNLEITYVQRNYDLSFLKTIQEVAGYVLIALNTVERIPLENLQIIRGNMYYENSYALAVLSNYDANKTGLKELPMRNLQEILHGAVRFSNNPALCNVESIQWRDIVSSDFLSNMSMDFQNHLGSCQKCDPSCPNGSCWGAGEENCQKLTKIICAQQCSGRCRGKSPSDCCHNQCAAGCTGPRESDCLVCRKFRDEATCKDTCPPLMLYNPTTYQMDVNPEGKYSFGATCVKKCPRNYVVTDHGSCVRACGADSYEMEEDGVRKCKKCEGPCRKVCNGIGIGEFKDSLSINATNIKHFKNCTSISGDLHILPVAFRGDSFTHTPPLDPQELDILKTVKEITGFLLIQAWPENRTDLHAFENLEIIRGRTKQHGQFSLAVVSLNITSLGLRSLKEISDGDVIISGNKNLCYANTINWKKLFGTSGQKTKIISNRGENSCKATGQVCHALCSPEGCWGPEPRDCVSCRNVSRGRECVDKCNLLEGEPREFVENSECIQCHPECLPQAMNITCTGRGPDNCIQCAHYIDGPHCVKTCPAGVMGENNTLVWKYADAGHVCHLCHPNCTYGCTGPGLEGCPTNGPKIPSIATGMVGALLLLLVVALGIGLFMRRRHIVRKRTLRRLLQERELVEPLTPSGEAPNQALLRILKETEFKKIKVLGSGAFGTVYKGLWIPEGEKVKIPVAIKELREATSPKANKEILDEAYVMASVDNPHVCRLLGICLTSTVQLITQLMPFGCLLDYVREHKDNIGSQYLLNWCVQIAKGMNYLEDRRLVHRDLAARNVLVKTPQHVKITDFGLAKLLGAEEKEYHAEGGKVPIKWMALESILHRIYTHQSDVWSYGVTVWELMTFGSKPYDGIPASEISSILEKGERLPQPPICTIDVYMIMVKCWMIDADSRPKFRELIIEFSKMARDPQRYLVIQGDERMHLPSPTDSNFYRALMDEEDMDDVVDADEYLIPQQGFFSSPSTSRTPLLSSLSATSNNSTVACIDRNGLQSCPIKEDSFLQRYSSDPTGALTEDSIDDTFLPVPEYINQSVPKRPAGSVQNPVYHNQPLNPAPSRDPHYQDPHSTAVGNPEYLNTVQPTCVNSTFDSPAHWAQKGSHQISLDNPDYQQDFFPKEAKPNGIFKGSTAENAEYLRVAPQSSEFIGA
EGFR_T790M/L858R, sequence (P00533 25-1210 T790M/L858R): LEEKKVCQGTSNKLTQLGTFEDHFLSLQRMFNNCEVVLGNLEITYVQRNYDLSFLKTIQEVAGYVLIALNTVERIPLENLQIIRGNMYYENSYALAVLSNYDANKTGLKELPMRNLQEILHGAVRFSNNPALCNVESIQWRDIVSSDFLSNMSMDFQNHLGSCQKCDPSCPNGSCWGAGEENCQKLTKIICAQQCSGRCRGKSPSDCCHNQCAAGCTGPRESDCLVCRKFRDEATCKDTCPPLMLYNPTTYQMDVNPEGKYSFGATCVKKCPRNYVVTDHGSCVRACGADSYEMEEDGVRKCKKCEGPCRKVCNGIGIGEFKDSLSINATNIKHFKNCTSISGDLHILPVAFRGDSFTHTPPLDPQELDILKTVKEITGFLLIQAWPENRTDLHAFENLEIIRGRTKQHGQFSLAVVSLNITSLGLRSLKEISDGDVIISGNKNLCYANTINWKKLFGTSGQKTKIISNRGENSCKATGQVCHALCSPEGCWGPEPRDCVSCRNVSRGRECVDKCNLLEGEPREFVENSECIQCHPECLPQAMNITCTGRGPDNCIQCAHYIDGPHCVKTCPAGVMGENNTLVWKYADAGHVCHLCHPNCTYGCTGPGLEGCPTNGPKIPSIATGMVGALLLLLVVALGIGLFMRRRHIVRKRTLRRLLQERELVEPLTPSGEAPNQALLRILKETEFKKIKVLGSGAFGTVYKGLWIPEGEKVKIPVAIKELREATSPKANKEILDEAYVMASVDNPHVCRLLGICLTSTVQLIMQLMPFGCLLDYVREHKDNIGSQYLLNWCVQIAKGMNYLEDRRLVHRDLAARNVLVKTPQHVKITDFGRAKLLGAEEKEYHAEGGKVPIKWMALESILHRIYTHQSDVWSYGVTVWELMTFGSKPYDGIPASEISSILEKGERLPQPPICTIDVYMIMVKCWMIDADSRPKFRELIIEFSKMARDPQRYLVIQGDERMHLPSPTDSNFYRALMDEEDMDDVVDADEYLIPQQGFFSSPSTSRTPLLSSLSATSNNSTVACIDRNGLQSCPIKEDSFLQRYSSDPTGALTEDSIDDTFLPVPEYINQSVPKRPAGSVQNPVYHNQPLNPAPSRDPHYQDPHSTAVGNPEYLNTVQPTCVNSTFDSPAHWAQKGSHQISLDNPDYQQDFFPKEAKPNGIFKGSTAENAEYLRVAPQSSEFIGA
EGFR_d746-750, sequence (P00533 with tags, fused parts or gaps DEL746-750): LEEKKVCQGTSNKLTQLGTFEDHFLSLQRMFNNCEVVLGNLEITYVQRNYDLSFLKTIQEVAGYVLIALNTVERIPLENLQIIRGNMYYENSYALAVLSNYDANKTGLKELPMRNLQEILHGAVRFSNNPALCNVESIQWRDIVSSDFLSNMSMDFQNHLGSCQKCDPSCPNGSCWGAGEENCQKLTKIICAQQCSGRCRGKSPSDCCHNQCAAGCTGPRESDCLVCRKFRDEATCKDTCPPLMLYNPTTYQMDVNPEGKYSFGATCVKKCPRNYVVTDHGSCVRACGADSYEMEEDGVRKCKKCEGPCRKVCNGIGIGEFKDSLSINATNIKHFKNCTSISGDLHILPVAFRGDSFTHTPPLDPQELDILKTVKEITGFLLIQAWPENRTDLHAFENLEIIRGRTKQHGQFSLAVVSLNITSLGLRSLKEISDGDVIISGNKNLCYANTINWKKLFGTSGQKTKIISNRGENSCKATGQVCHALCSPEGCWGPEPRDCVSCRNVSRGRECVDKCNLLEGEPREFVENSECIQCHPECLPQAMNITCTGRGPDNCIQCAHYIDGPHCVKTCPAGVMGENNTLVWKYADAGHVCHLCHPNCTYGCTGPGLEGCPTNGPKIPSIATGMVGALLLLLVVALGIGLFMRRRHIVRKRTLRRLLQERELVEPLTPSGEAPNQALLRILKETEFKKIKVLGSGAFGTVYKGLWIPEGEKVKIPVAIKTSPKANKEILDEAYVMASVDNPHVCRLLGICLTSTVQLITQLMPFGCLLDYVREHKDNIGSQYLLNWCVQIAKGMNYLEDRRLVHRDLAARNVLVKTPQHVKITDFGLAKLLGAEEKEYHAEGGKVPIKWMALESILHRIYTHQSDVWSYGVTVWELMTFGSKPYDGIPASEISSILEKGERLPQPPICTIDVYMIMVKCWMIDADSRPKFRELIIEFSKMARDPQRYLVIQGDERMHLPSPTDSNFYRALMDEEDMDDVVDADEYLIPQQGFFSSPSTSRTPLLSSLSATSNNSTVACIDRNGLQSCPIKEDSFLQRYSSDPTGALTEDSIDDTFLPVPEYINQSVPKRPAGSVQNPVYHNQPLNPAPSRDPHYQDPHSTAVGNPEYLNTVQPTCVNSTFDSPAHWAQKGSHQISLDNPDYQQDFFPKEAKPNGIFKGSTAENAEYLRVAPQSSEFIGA
T1 sequence (P08069 959-1367 limits assumed): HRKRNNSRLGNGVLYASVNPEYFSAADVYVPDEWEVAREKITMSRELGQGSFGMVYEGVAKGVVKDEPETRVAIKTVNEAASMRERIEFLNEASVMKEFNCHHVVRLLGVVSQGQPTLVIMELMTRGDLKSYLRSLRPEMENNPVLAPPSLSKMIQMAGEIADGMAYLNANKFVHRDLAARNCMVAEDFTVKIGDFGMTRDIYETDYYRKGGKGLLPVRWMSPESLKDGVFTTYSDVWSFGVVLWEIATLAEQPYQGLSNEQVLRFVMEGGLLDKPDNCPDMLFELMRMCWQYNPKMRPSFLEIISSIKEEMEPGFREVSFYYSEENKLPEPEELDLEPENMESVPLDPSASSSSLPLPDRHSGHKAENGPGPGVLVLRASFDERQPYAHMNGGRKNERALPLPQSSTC

Take `C=CC(=O)Nc1cc(Nc2nccc(-c3cn(C)c4ccccc34)n2)c(OC)cc1N(C)CCN(C)C` [AZD-9291]: the IC50 is 8.4 nM in assay [1]; […] in [2]; 2860 nM in [3]; 7.31 nM in assay [4]; 12.1 nM in assay [4] (Homo sapiens, PC-9, 2 h); 249 nM and 321 nM against IGF-1R. Moreover, the IC50 against INSR was […]; in assay [5] (Homo sapiens, NCI-H1975, 2 h, read-out: H1975 IC50 (nM), cellular EGFR autophosphorylation, 2 h treatment, ELISA), 22.7 nM; in assay [5] (read-out: H1975 IC50, cellular EGFR autophosphorylation, 2 h treatment, ELISA) it was 11.6 nM.
In the case of `C=CC(=O)Nc1cc(Nc2nccc(-n3ccc4ccccc43)n2)c(OC)cc1N(C)CCN(C)C` [Example 1], the IC50 is 2.4 nM against EGFR_d746-750; 0.7 nM on EGFR_T790M/L858R; 4.1 nM at Wt EGFR; 6.8 nM in [1]; 3.1 nM in assay [2]; 3570 nM in assay [3].
As to `C=CC(=O)Nc1cc(Nc2nccc(-n3cc(C)c4ccccc43)n2)c(OC)cc1N(C)CCN(C)C` [Example 2, N-(2-(N-(2-(N,N-Dimethylamino)ethyl)-N-methylamino)-4-methoxy-5-(4-(3-methylindol-1-yl)pyrimidin-2-ylamino)phenyl) propenamide], the IC50 at EGFR_d746-750 is 3.1 nM; on EGFR_T790M/L858R, 1.3 nM; on Wt EGFR, 7.1 nM; in assay [1] it was 12.3 nM; in assay [2], 7.5 nM; in [3], 5030 nM.
Consider `C=CC(=O)Nc1cc(Nc2nccc(-n3cc(Cl)c4ccccc43)n2)c(OC)cc1N(C)CCN(C)C` [Example 3, N-(2-(N,N-(2-(N,N-Dimethylamino)ethyl)-N-methylamino)-4-methoxy-5-(4-(3-chloroindol-1-yl)pyrimidin-2-ylamino)phenyl) propenamide], for which the IC50 against EGFR_d746-750 stood at 5.3 nM; at EGFR_T790M/L858R, 1.5 nM; at Wt EGFR, 8.4 nM; in assay [1] it was 23.3 nM; in [2] it was 17.9 nM; in assay [3], 2810 nM.
On to `C=CC(=O)Nc1cc(Nc2nccc(-n3cc(C#N)c4ccccc43)n2)c(OC)cc1N(C)CCN(C)C` [Example 4, N-(2-(N-(2-(N,N-Dimethylamino)ethyl)-N-methylamino)-4-methoxy-5-(4-(3-cyanoindol-1-yl)pyrimidin-2-ylamino)phenyl) propenamide], for which the IC50 on EGFR_d746-750 came to 2.6 nM; at EGFR_T790M/L858R it was 0.84 nM; on Wt EGFR it was 3.8 nM; in [1], 25.9 nM; in [2], 18.8 nM; in [3], 2890 nM.
Turning to `C=CC(=O)Nc1cc(Nc2nccc(-c3cn(C)c4cccc(C)c34)n2)c(OC)cc1N(C)CCN(C)C` [Example 5, N-(2-(N-(2-(N,N-Dimethylamino)ethyl)-N-methylamino)-4-methoxy-5-(4-(1 N,4-dimethylindol-3-yl)pyrimidin-2-ylamino)phenyl)propenamide], the figures for the IC50 on EGFR_d746-750, at EGFR_T790M/L858R and at Wt EGFR were 8.2 nM, 2.7 nM and 31 nM, respectively.
As for `C=CC(=O)Nc1cc(Nc2nccc(-c3cn(C)c4cccc(Cl)c34)n2)c(OC)cc1N(C)CCN(C)C` [Example 6, N-(2-(N-(2-(N,N-Dimethylamino)ethyl)-N-methylamino)-4-methoxy-5-(4-(4-chloro-1N-methylindol-3-yl)pyrimidin-2-ylamino)phenyl) propenamide], the IC50 is 9.2 nM against EGFR_d746-750, 7 nM on EGFR_T790M/L858R and 44 nM on Wt EGFR.
